Assay [1] deals with T1, hNTS1 receptor (Homo sapiens, UniProt P30989).
T1 construct: membranes prepared from them
Kind of assay: Competitive radioligand binding assay on the hNTS1 receptor. Particulars: displacement of 125I-[Tyr3]-NT, membranes of CHO-K1 cells expressing hNTS1; read-out: IC50 NTS1. The gist of the method: (§1)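 IC50 values came from one-site competition curves against ¹²⁵I-[Tyr³]-NT after 60 min at 25 °C (pH 7.5 Tris, 0.2% BSA), with analogues at 10⁻¹¹–10⁻⁴ M and nonspecific binding set by 10⁻⁵ M NT(8-13). hNTS1 used 15 µg CHO-K1 membranes with […] tracer; hNTS2 used 50 µg 1321N1 membranes with […] tracer.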

Assay [2] concerns the target T2, hNTS2 receptor (Homo sapiens, UniProt O95665).
T2 construct: membranes prepared from them
Briefly: Competitive radioligand binding assay on the hNTS2 receptor. Particulars: for IC50: displacement of 125I-[Tyr3]-NT, membranes of 1321N1 cells expressing hNTS2, read-out: IC50 NTS2 (converted); for Selectivity: ratio IC50 for NTS1 : IC50 for NTS2. The procedure, abridged:
as §1
For orientation: Displacement assays read how much labelled ligand stays bound in the presence of the test substance.

Where a SMILES comes first, the peptide text is derived from it. Bridges are numbered along the chain shown (N, C = ends). [ ]: non-standard residue; d: D form. Phe(3-Br) = N[C@@H](Cc1cccc(Br)c1)C(=O)O; Ala(cHept) = N[C@@H](CC1CCCCCC1)C(=O)O; Phe(3-I) = N[C@@H](Cc1cccc(I)c1)C(=O)O; Phe(4-I) = N[C@@H](Cc1ccc(I)cc1)C(=O)O; Bta = N[C@@H](Cc1csc2ccccc12)C(=O)O; tBuAla = CC(C)(C)C[C@H](N)C(=O)O; 3Pal = N[C@@H](Cc1cccnc1)C(=O)O; Cit = NC(=O)NCCC[C@H](N)C(=O)O; AllylGly = C=CC[C@H](N)C(=O)O; Cba = N[C@@H](CC1CCC1)C(=O)O; Tle = CC(C)(C)[C@H](N)C(=O)O; hLys = NCCCCC[C@H](N)C(=O)O; Nle = CCCC[C@H](N)C(=O)O; Dab = NCC[C@H](N)C(=O)O Some results are limits rather than exact numbers.

T2 sequence (O95665 whole entry): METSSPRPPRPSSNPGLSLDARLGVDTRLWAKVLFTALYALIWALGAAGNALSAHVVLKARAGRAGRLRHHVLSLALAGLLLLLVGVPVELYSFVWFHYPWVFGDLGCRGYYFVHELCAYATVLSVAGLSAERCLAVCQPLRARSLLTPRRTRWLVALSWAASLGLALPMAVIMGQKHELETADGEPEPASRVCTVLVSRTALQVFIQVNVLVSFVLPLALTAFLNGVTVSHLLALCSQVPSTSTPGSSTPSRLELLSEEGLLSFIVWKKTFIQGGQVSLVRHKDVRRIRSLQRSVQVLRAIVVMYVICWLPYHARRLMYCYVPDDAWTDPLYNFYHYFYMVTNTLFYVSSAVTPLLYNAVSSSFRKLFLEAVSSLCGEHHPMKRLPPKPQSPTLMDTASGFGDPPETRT
T1 sequence (P30989 whole entry): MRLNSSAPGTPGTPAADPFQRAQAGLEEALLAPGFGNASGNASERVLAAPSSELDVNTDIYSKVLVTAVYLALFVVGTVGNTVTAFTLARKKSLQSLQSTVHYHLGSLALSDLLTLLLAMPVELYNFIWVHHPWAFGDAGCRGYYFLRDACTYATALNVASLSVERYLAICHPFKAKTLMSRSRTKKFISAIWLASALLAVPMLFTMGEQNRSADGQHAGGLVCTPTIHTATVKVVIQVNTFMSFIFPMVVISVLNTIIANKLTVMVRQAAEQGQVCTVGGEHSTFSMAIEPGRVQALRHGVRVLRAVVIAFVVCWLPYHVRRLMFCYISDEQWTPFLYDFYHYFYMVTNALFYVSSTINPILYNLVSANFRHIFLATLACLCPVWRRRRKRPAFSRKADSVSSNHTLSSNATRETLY

As a reminder, the IC50 is the concentration that gives 50% inhibition. Turning to `CC(C)C[C@H](NC(=O)[C@H](Cc1cccnc1)NC(=O)[C@@H]1CC=CC[C@H](N)C(=O)N[C@@H](CCCCN)C(=O)N[C@@H](CCCCN)C(=O)N1)C(=O)O` [compound 169, c[G(All)KKG(All)]A(3-pyridyl)L] (H-[AllylGly]KK[AllylGly][3Pal]L-OH; staple 1-4), the IC50 in assay [1] is greater than 100 µM. Moreover, in assay [2], the IC50 is 0.234 µM and the Selectivity was found to be 427.
As for `CC(C)C[C@H](NC(=O)[C@H](Cc1ccc(O)cc1)NC(=O)[C@@H]1CC(=O)NCC[C@H](N)C(=O)N[C@@H](CCCCN)C(=O)N[C@@H](CCCCN)C(=O)N1)C(=O)O` [compound 95, c[DabKKD]YL] (H-[Dab]KKDYL-OH; lactam 1-4), the IC50 in assay [1] is greater than 100 µM; in assay [2], 8.81 µM. In addition, the Selectivity in assay [2] is reported as greater than 11.4.
Take `CC(C)C[C@H](NC(=O)[C@H](Cc1ccc(O)cc1)NC(=O)[C@@H]1CC=CC[C@H](N)C(=O)N[C@@H](CCCCCN)C(=O)N[C@@H](CCCCN)C(=O)N1)C(=O)O` [compound 150, c[G(All)homolysineKG(All)]YL] (H-[AllylGly][hLys]K[AllylGly]YL-OH; staple 1-4): the IC50 in assay [1] was greater than 100 µM. Besides, in assay [2], the half-maximal inhibitory concentration (IC50) is 0.187 µM and the Selectivity amounted to 533.
As to `CC(C)C[C@H](NC(=O)[C@H](Cc1ccc(O)cc1)NC(=O)[C@@H]1CC=CC[C@H](N)C(=O)N[C@@H](CCCNC(N)=O)C(=O)N[C@@H](CCCNC(N)=O)C(=O)N1)C(=O)O` [compound 148, c[G(All)citrulline-citrullineG (All)]YL] (H-[AllylGly][Cit][Cit][AllylGly]YL-OH; staple 1-4), the IC50 in assay [1] is greater than 100 µM; in assay [2], 7.9 µM. Further, in assay [2], the Selectivity turned out to be 13.
With `CC(C)C[C@H](NC(=O)[C@H](Cc1ccc(O)cc1)NC(=O)[C@@H]1CC=CC[C@H](N)C(=O)N[C@@H](CCCNC(N)=O)C(=O)N[C@@H](CCCCN)C(=O)N1)C(=O)O` [compound 147, c[G(All)citrullineKG(All)]YL] (H-[AllylGly][Cit]K[AllylGly]YL-OH; staple 1-4), the IC50 in assay [1] is greater than 100 µM; in assay [2], 0.6 µM. In assay [2], the Selectivity is recorded as 167.
Regarding `CC(C)C[C@H](NC(=O)[C@H](Cc1ccc(O)cc1)NC(=O)[C@@H]1CC=CC[C@H](N)C(=O)N[C@@H](Cc2c[nH]cn2)C(=O)N[C@@H](CCCCN)C(=O)N1)C(=O)O` [compound 83, c[G(All)HKG(All)]YL] (H-[AllylGly]HK[AllylGly]YL-OH; staple 1-4), the IC50 in assay [1] was greater than 100 µM; in assay [2] it was 1.32 µM. The Selectivity in assay [2] is on record as greater than 76.
Take `NCCCC[C@@H]1NC(=O)[C@H](CCCCN)NC(=O)[C@@H](N)CC=CC[C@@H](C(=O)N[C@@H](Cc2ccc(O)cc2)C(=O)N[C@@H](Cc2ccccc2)C(=O)O)NC1=O` [compound 32, c[G(All)KKG(All)]YF] (H-[AllylGly]KK[AllylGly]YF-OH; staple 1-4): the IC50 in assay [1] is greater than 100 µM. Besides, in assay [2], the 50% inhibitory concentration (IC50) is 0.453 µM and the Selectivity is recorded as greater than 220.
As to `CC(C)C[C@H](NC(=O)[C@H](Cc1ccc(O)cc1)NC(=O)[C@@H]1CCNC(=O)CC[C@H](N)C(=O)N[C@@H](CCCCN)C(=O)N[C@@H](CCCCN)C(=O)N1)C(=O)O` [compound 104, c[EKKDab]YL] (H-EKK[Dab]YL-OH; lactam 1-4), the half-inhibitory concentration (IC50) was greater than 100 µM in assay [1] and 16.5 µM in assay [2]. For the same compound, the Selectivity in assay [2] was greater than 6.1.
Turning to `CC(C)(C)[C@H](NC(=O)[C@H](Cc1ccc(O)cc1)NC(=O)[C@@H]1CC=CC[C@H](N)C(=O)N[C@@H](CCCCN)C(=O)N[C@@H](CCCCN)C(=O)N1)C(=O)O` [compound 27, c[G(All)KKG(All)]YTle] (H-[AllylGly]KK[AllylGly]Y[Tle]-OH; staple 1-4), the IC50 in assay [1] is greater than 100 µM; in assay [2], 77.8 µM. In addition, in assay [2], the Selectivity is listed as greater than 1.3.
Consider `CC(C)C[C@H](NC(=O)[C@H](Cc1cccc(Br)c1)NC(=O)[C@@H]1CC=CC[C@H](N)C(=O)N[C@@H](CCCCN)C(=O)N[C@@H](CCCCN)C(=O)N1)C(=O)O` [compound 115, c[G(All)KKG(All)]F(3-bromo)L] (H-[AllylGly]KK[AllylGly][Phe(3-Br)]L-OH; staple 1-4), for which, in assay [1], the IC50 was greater than 100 µM. Further, in assay [2], the IC50 was 0.0284 µM and the Selectivity is greater than 3523.
Turning to `CC(C)C[C@H](NC(=O)[C@H](Cc1cccc(I)c1)NC(=O)[C@@H]1CC=CC[C@H](N)C(=O)N[C@@H](CCCCN)C(=O)N[C@@H](CCCCN)C(=O)N1)C(=O)O` [compound 117, c[G(All)KKG(All)]F(3-iodo)L] (H-[AllylGly]KK[AllylGly][Phe(3-I)]L-OH; staple 1-4), the IC50 in assay [1] was greater than 100 µM. Moreover, in assay [2], the IC50 was 0.0323 µM and the Selectivity was greater than 3097.
`CC(C)C[C@H](NC(=O)[C@H](Cc1ccc(O)cc1)NC(=O)C1(C)CC=CCCC[C@H](N)C(=O)N[C@@H](CCCCN)C(=O)N[C@@H](CCCCN)C(=O)N1)C(=O)O` (single isomer, unassigned) [compound 92, c[G(All)KKG*(alpha-Me-(4-Pentenyl))]YL]: the IC50 was greater than 100 µM in assay [1] and 0.511 µM in assay [2]. In addition, the Selectivity in assay [2] is reported as greater than 196.
For the compound `CC(C)C[C@H](NC(=O)[C@H](Cc1ccc(O)cc1)NC(=O)[C@@H]1CC=CC[C@H](N)C(=O)N[C@H](Cc2c[nH]cn2)C(=O)N[C@@H](CCCCN)C(=O)N1)C(=O)O` [compound 84, c[G(All)H*KG(All)]YL] (H-[AllylGly][dH]K[AllylGly]YL-OH; staple 1-4), the IC50 in assay [1] is greater than 100 µM. Also, in assay [2], the IC50 was 0.646 µM and the Selectivity is listed as greater than 154.9.
Turning to `CC(C)C[C@H](NC(=O)[C@H](Cc1ccc(O)cc1)NC(=O)[C@@H]1CC=CC[C@H](N)C(=O)N[C@@H](CCCCN)C(=O)N[C@@H](CCC(=O)O)C(=O)N1)C(=O)O` [compound 61, c[G(All)KEG(All)]YL] (H-[AllylGly]KE[AllylGly]YL-OH; staple 1-4), in assay [1], the half-inhibitory concentration (IC50) was greater than 100 µM. In addition, in assay [2], the IC50 is 12.4 µM and the Selectivity was greater than 8.
As to `NCCCC[C@@H]1NC(=O)[C@H](CCCCN)NC(=O)[C@@H](N)CC=CC[C@@H](C(=O)N[C@@H](Cc2ccc(O)cc2)C(=O)N[C@@H](CC2CCCCCC2)C(=O)O)NC1=O` [compound 68, c[G(All)KKG(All)]YA(cycloheptyl)] (H-[AllylGly]KK[AllylGly]Y[Ala(cHept)]-OH; staple 1-4), the IC50 in assay [1] is greater than 100 µM. In assay [2], the IC50 was 0.00685 µM and the Selectivity is recorded as >14 600.
Turning to `NCCCC[C@@H]1NC(=O)CCC=CC[C@@H](C(=O)N[C@@H](Cc2ccc(Br)cc2)C(=O)N[C@@H](CC2CCCC2)C(=O)O)NC(=O)[C@H](CCCCN)NC1=O` [compound 134, cK([Pentenoyl)KG(All)]F(4-bromo)A (cyclopentyl)], the values for the IC50 in assay [1] and in assay [2] were greater than 100 µM and 0.0177 µM, respectively. Also, in assay [2], the Selectivity was found to be 5650.
Turning to `CC(C)C[C@H](NC(=O)[C@H](CC1CCC1)NC(=O)[C@@H]1CC=CC[C@H](N)C(=O)N[C@@H](CCCCN)C(=O)N[C@@H](CCCCN)C(=O)N1)C(=O)O` [compound 143, c[G(All)KKG(All)]A (cyclobutyl)L] (H-[AllylGly]KK[AllylGly][Cba]L-OH; staple 1-4), the IC50 in assay [1] is greater than 100 µM. Further, in assay [2], the IC50 is 0.276 µM and the Selectivity is recorded as 362.
Regarding `CC(C)C[C@H](NC(=O)[C@H](Cc1ccc(I)cc1)NC(=O)[C@@H]1CC=CC[C@H](N)C(=O)N[C@@H](CCCCN)C(=O)N[C@@H](CCCCN)C(=O)N1)C(=O)O` [compound 78, c[G(All)KKG(All)]F(4-iodo)L] (H-[AllylGly]KK[AllylGly][Phe(4-I)]L-OH; staple 1-4), in assay [1], the IC50 is greater than 100 µM. Further, in assay [2], the IC50 is 0.0155 µM and the Selectivity is greater than 6452.
Regarding `CCCC[C@@H]1NC(=O)[C@H](CCCCN)NC(=O)[C@@H](N)CC=CC[C@@H](C(=O)N[C@@H](Cc2ccc(O)cc2)C(=O)N[C@@H](CC(C)C)C(=O)O)NC1=O` [compound 57, c[G(All)KNleG(All)]YL] (H-[AllylGly]K[Nle][AllylGly]YL-OH; staple 1-4), the IC50 in assay [1] was greater than 100 µM. In addition, in assay [2], the IC50 was 0.716 µM and the Selectivity is given as greater than 140.
`CC(C)C[C@H](NC(=O)[C@H](Cc1ccc(O)cc1)NC(=O)[C@@H]1CCC(=O)NCC[C@H](N)C(=O)N[C@@H](CCCCN)C(=O)N[C@@H](CCCCN)C(=O)N1)C(=O)O` [compound 99, c[DabKKE]YL] (H-[Dab]KKEYL-OH; lactam 1-4): the IC50 in assay [1] was greater than 100 µM; in assay [2] it was 11 µM. In assay [2], the Selectivity is reported as greater than 9.
For the compound `CC(C)(C)C[C@H](NC(=O)[C@H](Cc1ccc(O)cc1)NC(=O)[C@@H]1CC=CC[C@H](N)C(=O)N[C@@H](CCCCN)C(=O)N[C@@H](CCCCN)C(=O)N1)C(=O)O` [compound 49, c[G(All)KKG(All)]YNpg] (H-[AllylGly]KK[AllylGly]Y[tBuAla]-OH; staple 1-4), the IC50 in assay [1] is greater than 100 µM. Also, in assay [2], the IC50 was 0.0444 µM and the Selectivity is listed as greater than 2252.
With `CC(C)C[C@H](NC(=O)[C@H](Cc1csc2ccccc12)NC(=O)[C@@H]1CC=CC[C@H](N)C(=O)N[C@@H](CCCCN)C(=O)N[C@@H](CCCCN)C(=O)N1)C(=O)O` [compound 168, c[G(All)KKG(All)]A(3-benzothienyl)L] (H-[AllylGly]KK[AllylGly][Bta]L-OH; staple 1-4), the IC50 in assay [1] is greater than 100 µM. Besides, in assay [2], the half-maximal inhibitory concentration (IC50) was 0.102 µM and the Selectivity was 979.

(Values after patent publication US12358948B2, “Neurotensinergic agonists and methods of using same preventing or treating pain” (priority 2019, dated 2025).)
